Reference: US20210247277A1, “Pretreatment Method for Fluorescent Image Diagnosis” (Goryo Chemical, Inc., priority 2018, published 2021)

Key:
[1] = Fluorescence intensity of the probe and of its fluorescent product at each pH; assay type: physicochemical; settings: dependence on pH
Protocol: (§1) Cells cultured on glass surface were reacted with gGlu-HMRG, and fluorescence intensity was compared. HeLa cells were inoculated at the same density to chambers of a 4-chamber glass bottom dish. The cells were cultured in DMEM+8% FBS, P.S. under conditions of 37° C. and 5% CO2 for approximately 8 hours. The cells were rinsed three times with PBS(−) adjusted to pH 6.5, 7.3, or 7.8, which was then replaced with each solution supplemented with 2 μM gGlu-HMRG. The cells were stained at 37° C. under 5% CO2 for 20 minutes and observed under a fluorescence microscope under the same conditions as above without the solution replaced. 100 ms exposure, gain 5 Int 5, ND1. Fluorescence intensity from 5 cells in fluorescence images, and background fluorescence intensity were measured with reference to superimposed images with DIC, and the mean and standard deviation were plotted. The fluorescence intensity of gGlu-HMRG and the fluorescence intensity of HMRG (fluorescent substance after reaction with GGT) were measured at each pH.

[2] = system: lymph nodes including sentinel lymph node (breast cancer metastasis); assay: Fluorescence increase in lymph node clinical specimens resected during breast cancer surgery; settings: 50 μM in PBS
Protocol: After pretreatment of lymph node specimens resected during breast cancer surgery in PBS(−) for 0 minutes, 1 minute, 5 minutes, 10 minutes or an appropriate course of time, increases of fluorescence at 10 minutes after impregnation with a 50 μM gGlu-HMRG solution from that immediately after the impregnation are shown. A specimen diagnosed with cancer metastasis in pathological diagnosis is indicated by a filled circle, and a specimen confirmed to have no cancer metastasis is indicated by an open triangle.
Lymph nodes including sentinel lymph node excised for the purpose of pathological diagnosis during breast cancer surgery were divided and transported from the operating room to an inspection room in a state wrapped in gauze wetted with PBS. A reagent and PBS (140 mM NaCl, 2.7 mM KCl, 10 mM PO4^3−, pH=7.4) at room temperature were used. A PBS impregnated sample was impregnated with a container where PBS was placed, and continuously impregnated for 1 minute, 5 minutes, 10 minutes, or an appropriate course of time from 1 minute to 30 minutes. A PBS non-impregnated sample was stored in state wrapped in gauze wetted with PBS to prevent drying out, instead of being impregnated with PBS, and used in fluorescence measurement. The lymph nodes were carefully taken out with tweezers and put on a Petri dish, and visible images of autofluorescence were taken in a fluorescence measuring machine. 50 μM gGlu-HMRG dissolved in PBS was added to the Petri dish where the lymph nodes were placed, until the lymph nodes completely soaked therein. The fluorescence measurement was continued. The pathological diagnosis of the specimens used in this test was also conducted and checked against final results about whether cancer metastasized to each lymph node.
The fluorescence intensity was indicated by a ratio to the fluorescence intensity of a fluorescence intensity reference plate having a constant fluorescence intensity (measured fluorescence intensity/fluorescence intensity of the fluorescence intensity reference plate).

HeLa cells spheroid = assay: Time-dependent fluorescence intensity in HeLa cell spheroid (fluorescence microscope); assay type: cell-based, human; settings: 1 μM; washed with HBSS and probe in HBSS, compared with PBS(−) 10 min and probe in PBS(−)
Protocol: Time-dependent changes in fluorescence intensity are shown for a HeLa cells spheroid which was washed with HBSS and then impregnated with a 1 μM solution of gGlu-HMRG dissolved in HBSS (upper), and for a HeLa cells spheroid which was impregnated with PBS(−) for 10 minutes and then impregnated with a 1 μM solution of gGlu-HMRG dissolved in PBS(−) (lower).
HeLa cells were inoculated at 10^5 cells/well and cultured for 4 to 6 days. The obtained spheroid was put on a glass bottom dish and cultured for about 3 hours. Then, the culture solution was removed, and the spheroid was impregnated with PBS(−) for 10 minutes. A control was washed with HBSS without being impregnated with PBS(−). A 1 μM solution of gGlu-HMRG dissolved in PBS(−) or HBSS was added to the spheroid impregnated with PBS(−) or the control spheroid. Each spheroid immediately (0 minutes), 10 minutes, 20 minutes, 30 minutes, and 60 minutes after addition of the gGlu-HMRG solution was photographed under a fluorescence microscope (Leica DMI 6000 CS, lens: 10×, filter Leica L5, excitation wavelength: 460 to 500 nm, fluorescence wavelength: 512 to 542 nm). Transmitted light images of the spheroid were taken 10 minutes after impregnated with PBS(−).

HeLa cell spheroid = assay: Quantification of probe reaction and penetration in HeLa cell spheroid (fluorescence intensity by depth); assay type: cell-based, human
Protocol: (§2) FIG. 4 illustrates a method for analyzing the penetration or reaction of reagents into or with the spheroid. When “Depth” shown in FIGS. 5 to 10 was, for example, 200 μm, the fluorescence intensity of an open region in the illustration was determined from fluorescence intensity observed by fluorescence microscope, wherein the open region has the inside circle at 200 μm inside from the outer periphery and has the outside circle at 100 μm outside from the aforementioned inside circle as shown in the drawing.
HeLa cells (human uterine cervical cancer cell line) or A549 cells (human alveolar basal epithelial adenocarcinoma cell line) were inoculated at 1×10^4 cells to Nunclon Sphera and cultured for 7 to 14 days. Each obtained spheroid was allowed to adhere to a poly-L-lysine-coated glass bottom dish over approximately 24 hours. The medium was replaced with a buffer, and the spheroid was incubated at room temperature for 10 minutes (impregnation, rinse). […] An area (ROI) having the distance from surface shown in FIG. 4 was captured with ImageJ, and increase in the average luminance between the start of measurement and 5 minutes later was analyzed. Fluorescence was also observed by impregnating with saline and addition of gGlu-HMRG dissolved in PBS(−).
(§3) The buffers used and their composition are as follows.
(§4) PBS(−): 140 mM NaCl, 2.7 mM KCl, 10 mM PO4^3− (pH=7.4) PBS(+): PBS(−) described above as well as 0.90 mM CaCl2, 0.33 mM MgCl2 (pH=7.4) PBS−Ca: PBS(−) described above as well as 0.90 mM CaCl2 (pH=7.4) PBS−Mg: PBS(−) described above as well as 0.33 mM MgCl2 (pH=7.4) PBS−EDTA: PBS(−) described above as well as 0.2 mM EDTA (pH=7.4)
(§5) To evaluate the influence of divalent ion (calcium, etc.)-dependent adhesion, fluorescence was observed under the same conditions as in Example 3 except that the following buffers were used.
(§6) (1) No pretreatment (no rinse) and impregnation with a solution of gGlu-HMRG dissolved in PBS(−) (2) Pretreatment by Impregnating with PBS(−) (3) Pretreatment by Impregnating with PBS(+) (4) Pretreatment by impregnating with PBS(−)+0.2 mM EDTA

A549 cell spheroid = assay: Quantification of probe reaction and penetration in A549 cell spheroid (fluorescence intensity by depth); assay type: cell-based, human
Protocol: as §2
HeLa cells (human uterine cervical cancer cell line) or A549 cells (human alveolar basal epithelial adenocarcinoma cell line) were inoculated at 1×10^4 cells to Nunclon Sphera and cultured for 7 to 14 days. Each obtained spheroid was allowed to adhere to a poly-L-lysine-coated glass bottom dish over approximately 24 hours. The medium was replaced with a buffer, and the spheroid was incubated at room temperature for 10 minutes (impregnation, rinse). The buffer in the dish was replaced with each buffer containing gGlu-HMRG dissolved to attain a final concentration of 0.1 μM (A549 cells) or 1 μM (HeLa cells), followed by observation under a fluorescence microscope (Leica DMI 6000 CS, lens: 10×, filter Leica L5, ex. 460 to 500 nm, em. 512 to 542 nm). An area (ROI) having the distance from surface shown in FIG. 4 was captured with ImageJ, and increase in the average luminance between the start of measurement and 5 minutes later was analyzed. Fluorescence was also observed by impregnating with saline and addition of gGlu-HMRG dissolved in PBS(−).
as §3, §4, §5, §6
Fluorescence was measured by the same method as in Example 3 except that a 5 μM FeRhoNox-1 probe was used instead of gGlu-HMRG as the fluorescent probe. The cells used were only A549 cells.

HeLa cells = assay: Influence of pH on fluorescence of HeLa cells cultured on glass surface; assay type: cell-based, human; settings: 2 μM, 20 minutes, 37° C.
Protocol: as §1

[3] = PBS(−) + 0.2 mM EDTA, compared with PBS(−)

| Fluorescence intensity at each pH [1] | Molecule | Increase in fluorescence intensity in the lymph nodes 10 minutes after the start of measurement ([2]; 5 specimens confirmed to have no cancer metastasis in pathological diagnosis) | Increase in fluorescence intensity in the lymph nodes 10 minutes after the start of measurement ([2]; some specimens confirmed to have cancer, without impregnation with PBS) | Increase in fluorescence intensity in the lymph nodes 10 minutes after the start of measurement ([2]; specimens confirmed to have cancer, impregnated with PBS (regardless of impregnating time)) | Increase of fluorescence in the spheroid over 0-60 minutes (HeLa cells spheroid) | Increase of fluorescence by distance from surface, 5 minutes (HeLa cell spheroid; [3]) | Increase of fluorescence by distance from surface, 5 minutes (HeLa cell spheroid; PBS(−) impregnation 10 minutes, probe in PBS(−), compared with HBSS without wash) | Increase of fluorescence by distance from surface, 5 minutes (HeLa cell spheroid; PBS(−) impregnation compared with no impregnation or PBS(+)) | Increase of fluorescence by distance from surface, 5 minutes (HeLa cell spheroid; probe in HBSS, no buffer wash, 1 μM, 50 μM (FIG. 5 legend)) | Increase rate of fluorescence, 5 minutes (A549 cell spheroid; PBS(+) impregnation) | Increase of fluorescence intensity by depth, 5 minutes (A549 cell spheroid; [3]) | Increase rate of fluorescence intensity, 5 minutes (A549 cell spheroid; PBS(−) impregnating treatment 10 min compared with PBS(+), 0.1 μM, 50 μM (FIG. 6 legend)) | Increase rate of fluorescence intensity, 5 minutes (A549 cell spheroid; PBS−Ca (PBS(−) + 0.90 mM CaCl2) 10 min, as in PBS(+)) | Increase rate of fluorescence intensity, 5 minutes (A549 cell spheroid; PBS−Mg (PBS(−) + 0.33 mM MgCl2) 10 min) | Increase of fluorescence intensity, 5 minutes (A549 cell spheroid; saline (154 mM NaCl) 10 min) | Fluorescence intensity of cells and background (HeLa cells; PBS(−) at lower pH (pH 6.5, 7.3, 7.8 tested)) | Fluorescence intensity of cells (HeLa cells; PBS(−) at pH of 7.3 or higher) | Fluorescence intensity distribution by pretreatment solution, 5 minutes (A549 cell spheroid; 5 μM probe, PBS−, PBS+, PBS+Ca or PBS+EDTA 10 min) |
| --- | --- | --- | --- | --- | --- | --- | --- | --- | --- | --- | --- | --- | --- | --- | --- | --- | --- | --- |
| decreased with the elevation of pH | Nc1ccc2c(c1)Oc1cc(N)ccc1C21OCc2ccccc21 [HMRG] | – | – | – | – | – | – | – | – | – | – | – | – | – | – | – | – | – |
| decreased with the elevation of pH | Nc1ccc2c(c1)Oc1cc(NC(=O)CC[C@H](N)C(=O)O)ccc1C21OCc2ccccc21 (stereo partly shown) [gGlu-HMRG] | little fluorescence increase | only weak fluorescence | strong fluorescence | slower increase of fluorescence in the central portion of the spheroid | further accelerated the increase of fluorescence | increase of fluorescence was mora rapid | accelerated the increase of fluorescence at a location distant from surface | increase of fluorescence was slowed with the increasing distance from surface | almost equivalent to that of no impregnation | larger increase of fluorescence intensity at a site deeper from surface | accelerated the increase rate of fluorescence intensity | less increased fluorescence | Substantially the same results as those of PBS(−) | increase of fluorescence intensity was slow | lower pH decreased a signal and increased a background | increased signal intensity | – |
| – | FeRhoNox-1 | – | – | – | – | – | – | – | – | – | – | – | – | – | – | – | – | same tendency as that obtained using gGlu-HMRG |
